Data reported in US9051240B2, “Substituted 2-[2-(phenyl) ethylamino] alkaneamide derivatives and their use as sodium and/or calcium channel modulators” (Newron Pharmaceuticals S.P.A., priority 2007, dated 2015).
Where two headings read alike, the source gives them in different places.

Columns and labels:
[1] = test system: TTXs sodium channels; experiment: TTXs-sodium channel influx assay (fluorescence, ND7/23 cell line); assay type: cell-based, rat; settings: ND7/23 cells, veratridine 100 μM; read-out: Na+ influx IC50
Procedure: ND7/23 rat dorsal root ganglion-derived cell line endogenously expresses a mixed population of TTXs sodium channels. These cells lack of TTXr sodium channels as shown by the absence of their respective transcripts.
ND7/23 cells were grown in DMEM supplemented with 10% FBS and 1 mM sodium piruvate. The cells were seeded at 50,000 cells/well on 96 poly-L-lysine-coated plates and further incubated for 18-24 h before use.
The Membrane Potential Kit Assay (Molecular Devices), based on a negatively charged fluorescent dye able to monitor changes in membrane potential caused by the sodium influx due to the channel opening, was used for the assay.
Cells were incubated with the dye loading for 30 minutes at 25° C. Then, 100 nM of the toxin Anemonia sulcata (used as enhancer of the channel opener response) alone or in the presence of TTX (as reference standard) or test compound were added for further 15 minutes.
The fluorescence (excitation:530 nm, emission: 565 nm wavelength) was measured before and after (40-45 s) the automated injection of the sodium channel opener veratridine (100 μM) using a Victor plate reader (Perkin Elmer).
The inhibition curves were calculated from 5 concentrations, each in triplicate, and the IC50 determined using linear regression analysis.

[2] = molecular target: Na+ currents in rat cortical neurons; experiment: Patch clamp evaluation of Na+ currents blockade in rat cortical neurons; assay type: cell-based; settings: for Ki: calculated from Kr and Kdep, read-out: Ki (apparent affinity for the inactivated state)
Procedure: Cortical neurons were prepared from embryonic Wistar rats (E17-E19). A female rat at date 17-19 of pregnancy was anesthetized and sacrificed. The fetuses (n=4-5) were dissected and placed in ice-cold Hank's solution (Hank's solution (Life tech.14170-088)+glucose 30%+Pen-Strep 100× (Life Tech. 15140-122) 100U-100 μg/ml and Hepes-NaOH 5 mM). The uterus and placenta were removed, the fetuses were decapitated and the heads were placed in ice-cold Hank's solution. Cells were counted and diluted in Neurobasal medium to a concentration of 400000 cells per poly-D-lysine 5 μg/ml treated Petri dish. Cortical neurons were used from day 6th till day 11th after plating, and once a week Neurobasal medium was changed. Experiments on cortical neurons were carried out using standard whole cell patch clamp methods (Hamill et al., Pfugers Arch., 1981 August, 391(12), 85-100). Membrane currents were recorded and filtered at 5 kHz with an Axon Axopatch 200B amplifier and data digitized with an Axon Digidata 1322A (Axon Instruments, CA, USA). Protocol playing and data acquisition were controlled online with Axon pClamp8 software. Measuring and reference electrodes were AgCl-Ag electrodes. A Sutter Instrument P-87 Puller (CA, USA) was used for pulling patch clamp pipettes with a resistance of 2-3 MΩ from Harward borosilicate glass tubes. Cells were continuously superfused with extracellular solutions, using a solution changer Biologic RSC-200. To test the effect of compounds on sodium currents in cortical neurons, cells were clamped at -90 mV, then a two step protocol was used to determine the voltage dependence of the block. […] Tonic block of resting and depolarized currents at a given drug concentration, was calculated as the difference between the peak Na^+ current in the control external bath solution and peak currents with the test substance divided by control peak. Drug concentration-inhibition curves were obtained by plotting tonic blocks in the resting and depolarized condition, versus drug concentrations. Dose-response curves were fitted to the tonic block data, according to the logistic equation: […] Control bath solution contained (mM): […] Internal pipette solution consisted of (mM): […] Compounds were dissolved as stock solutions (20 mM) in DMSO. They were diluted to the final concentrations in the external solution.

[3] = molecular target: MAO-B (Rattus norvegicus (Rat), UniProt P19643); experiment: In vitro MAO-B enzyme activity assay (radioenzymatic, rat brain mitochondria); assay type: biochemical; settings: 14C-PEA 0.5 μM
MAO-B, sequence (P19643 whole entry): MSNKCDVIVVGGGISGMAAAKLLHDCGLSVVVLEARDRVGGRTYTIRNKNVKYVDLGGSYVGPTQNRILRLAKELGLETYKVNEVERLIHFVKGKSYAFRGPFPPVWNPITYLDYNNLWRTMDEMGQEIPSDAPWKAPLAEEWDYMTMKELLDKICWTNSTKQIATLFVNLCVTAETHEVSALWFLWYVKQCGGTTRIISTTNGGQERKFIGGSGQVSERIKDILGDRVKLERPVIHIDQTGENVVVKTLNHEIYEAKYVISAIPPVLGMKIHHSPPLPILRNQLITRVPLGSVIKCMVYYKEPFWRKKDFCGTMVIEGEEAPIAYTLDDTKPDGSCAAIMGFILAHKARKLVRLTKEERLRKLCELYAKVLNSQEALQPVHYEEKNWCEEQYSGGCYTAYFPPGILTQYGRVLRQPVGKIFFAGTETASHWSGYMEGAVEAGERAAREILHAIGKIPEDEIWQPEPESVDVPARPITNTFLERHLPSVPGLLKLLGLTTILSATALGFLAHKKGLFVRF
Procedure: Male Wistar rats (Harlan, Italy weighing 175-200 g) were sacrificed under light anaesthesia and brains were rapidly removed and homogenized in 8 volumes of ice-cold 0.32 M sucrose buffer containing 0.1 M EDTA, pH 7.4. The crude homogenate was centrifuged at 2220 rpm for 10 minutes and the supernatant recovered. The pellet was homogenized and centrifuged again. The two supernatants were pooled and centrifuged at 9250 rpm for 10 minutes at +4° C. The pellet was resuspended in fresh buffer and centrifuged at 11250 rpm for 10 minutes at +4° C. The resulting pellet was stored at −80° C. The enzyme activity was assessed with a radioenzymatic assay using the substrate ^14C-phenylethylamine (PEA) specific for MAO-B. The mitochondrial pellet (500 μg protein) was resuspended in 0.1 M phosphate buffer (pH 7.4). 200 μl of the suspension were added to a 50 μl solution of the test compound or buffer, and incubated for 30 min at 37° C. (preincubation) then the substrate (50 μl) was added. The incubation was carried out for 10 minutes at 37° C. (^14C-PEA, 0.5 μM). The reaction was stopped by adding 0.2 ml of perchloric acid. After centrifugation, the deaminated metabolites were extracted with 3 ml of toluene and the radioactive organic phase containing the neutral and/or acidic metabolites formed as a result of MAO-B activity was measured by liquid scintillation spectrometry at 90% efficiency. The MAO-B activity was expressed as nmoles of substrate transformed/mg protein/min.

[4] = test system: mice; experiment: Maximal electroshock test (MES) in mice; assay type: in vivo; settings: for ED50: Mus musculus
Excerpt: The maximal electroshock test (MES) is used commonly in the screening of anti-epileptic drugs in rodent models.
Animals and Apparatus: Male CD1 mice weighing 25 g were used. The procedure described by White et al. (White H. S., Woodhead J. H., Franklin M. R., Swinyard E. A., and Wolf H. H. Antiepileptic Drugs (1995) 4th ed: 99-110, Raven Press, Ltd., New York) was followed. An Ugo Basile electroconvulsive generator (Model ECT UNIT 7801) was used to deliver an electrical stimulus sufficient to produce a hindlimb tonic extensor response in at least 97% of control animals. The stimulus was delivered intra-aurally through clip electrodes in mice (0.7 s of a 40 mA shock, with a pulse train of 80 Hz having a pulse duration of 0.4 ms). The acute effect of compounds administered intraperitoneally (i.p.), subcutaneously (s.c.), intravenously (i.v.) or orally (p.o.) 5-120 minutes before MES induction were examined and compared with a vehicle control group. Ten mice were studied per group. Complete suppression of the hindlimb tonic extensor component of seizures was taken as evidence of anticonvulsant activity.
The compounds of the invention were administered p.o. or i.v., at the doses of 0.1-100 mg/kg.

[5] = preconditioning potential -110 mV, read-out: IC50 resting (Kr)
[6] = preconditioning potential ~-50 mV, read-out: IC50 depolarized

In the case of `CCCCOc1cccc(CCNCC(=O)N(C)C)c1.Cl` [2-[2-(3-Butoxyphenyl)-ethylamino]-N,N-dimethylacetamide hydrochloride], the IC50 [1] is reported as 1.5 µM, the Ki [2] is reported as 400 nM and the IC50 [2, 5] is reported as 25 µM. It also gave an IC50 [2, 6] of 0.8 µM, an IC50 [3] of 231 µM and an ED50 ([4]; iv, mice, MES, i.v., read-out: MES ED50 mg/kg i.v.) of 0.2 mg/kg. The ED50 ([4]; po, mice, MES, p.o., read-out: ED50 (mg/kg p.o.)) was 4.3 mg/kg and the “% protection 10 mg/kg p.o.” value ([4]; mice, MES, 10 mg/kg p.o.) was 100%.

Compound `C[C@H](NCc1ccc(OCc2ccccc2F)cc1)C(N)=O` [ralfinamide, (S)-(+)-2-[4-(2-fluorobenzyloxy)-benzylamino]-propanamide, reference compound] has an IC50 [1] of 9.5 µM, a Ki [2] of 4700 nM and an IC50 [2, 5] greater than 100 µM. The IC50 [2, 6] was 9 µM, the IC50 ([2]; resting condition, figure in parentheses after >100, read-out: IC50 resting (Kr), value in parentheses) was 213 µM and the IC50 [3] was 0.2 µM. The ED50 ([4]; iv, read-out: MES ED50 mg/kg i.v.) was 2.7 mg/kg.
